# Source: paper PMC3961306, “Comparison of the Cancer Gene Targeting and Biochemical Selectivities of All Targeted Kinase Inhibitors Approved for Clinical Use” (PLoS ONE, 2014)
# Experiments:
# Experiment in all cases: Kinase profiling in a biochemical assay panel (mobility shift assays and ELISA), %-inhibition at 1 μM; selectivity entropy
# [1] = target: T1, panel of more than 300 wild-type and mutant kinases (313 kinase panel) (Homo sapiens, UniProt Q9BXA7); settings: kinase TSSK1; 1 μM
# T1 sequence (Q9BXA7 1-367): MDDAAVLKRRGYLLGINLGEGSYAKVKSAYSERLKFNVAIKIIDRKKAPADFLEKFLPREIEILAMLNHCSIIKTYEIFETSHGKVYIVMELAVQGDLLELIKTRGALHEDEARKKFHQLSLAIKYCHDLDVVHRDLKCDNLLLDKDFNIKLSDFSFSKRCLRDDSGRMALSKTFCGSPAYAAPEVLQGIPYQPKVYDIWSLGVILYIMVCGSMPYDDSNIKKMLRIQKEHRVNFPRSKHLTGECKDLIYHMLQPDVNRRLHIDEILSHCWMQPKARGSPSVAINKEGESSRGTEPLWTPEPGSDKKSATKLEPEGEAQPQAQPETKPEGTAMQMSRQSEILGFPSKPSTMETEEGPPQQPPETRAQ
# [2] = target: panel of more than 300 wild-type and mutant kinases (313 kinase panel) (Homo sapiens, UniProt Q9Y5S2); settings: kinase MRCKβ; 1 μM
# [3] = target: panel of more than 300 wild-type and mutant kinases (313 kinase panel) (Homo sapiens, UniProt Q15375); settings: kinase EPHA7; compound at 1 μM
# [4] = target: panel of more than 300 wild-type and mutant kinases (313 kinase panel) (Homo sapiens, UniProt Q8IY84)
# [5] = target: panel of more than 300 wild-type and mutant kinases (313 kinase panel) (Homo sapiens, UniProt Q9UPE1); settings: kinase MSSK1; 1 μM
# [6] = target: T2, panel of more than 300 wild-type and mutant kinases (313 kinase panel) (Homo sapiens, UniProt Q13976)
# T2 sequence (Q13976 1-671): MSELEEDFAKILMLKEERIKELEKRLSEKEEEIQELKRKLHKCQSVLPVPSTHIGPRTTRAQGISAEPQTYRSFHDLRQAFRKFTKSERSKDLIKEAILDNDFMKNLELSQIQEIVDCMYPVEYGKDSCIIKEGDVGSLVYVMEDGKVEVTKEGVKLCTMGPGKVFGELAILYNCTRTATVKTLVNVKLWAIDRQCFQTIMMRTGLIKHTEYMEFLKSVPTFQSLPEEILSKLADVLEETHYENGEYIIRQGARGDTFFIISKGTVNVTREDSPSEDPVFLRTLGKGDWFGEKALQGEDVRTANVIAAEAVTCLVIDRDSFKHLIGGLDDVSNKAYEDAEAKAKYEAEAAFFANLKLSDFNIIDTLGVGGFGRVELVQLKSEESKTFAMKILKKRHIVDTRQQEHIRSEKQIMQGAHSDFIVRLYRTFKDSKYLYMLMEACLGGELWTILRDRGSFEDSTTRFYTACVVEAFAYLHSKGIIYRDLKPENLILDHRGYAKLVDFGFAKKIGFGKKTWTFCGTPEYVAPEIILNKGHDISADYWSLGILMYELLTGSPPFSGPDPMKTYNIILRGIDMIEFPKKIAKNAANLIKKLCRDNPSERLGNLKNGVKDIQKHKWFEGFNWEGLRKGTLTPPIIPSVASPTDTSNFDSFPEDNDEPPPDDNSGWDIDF
# [7] = target: T3, panel of more than 300 wild-type and mutant kinases (313 kinase panel) (Homo sapiens, UniProt O15264); settings: kinase p38δ; 1 μM
# T3 sequence (O15264 1-365): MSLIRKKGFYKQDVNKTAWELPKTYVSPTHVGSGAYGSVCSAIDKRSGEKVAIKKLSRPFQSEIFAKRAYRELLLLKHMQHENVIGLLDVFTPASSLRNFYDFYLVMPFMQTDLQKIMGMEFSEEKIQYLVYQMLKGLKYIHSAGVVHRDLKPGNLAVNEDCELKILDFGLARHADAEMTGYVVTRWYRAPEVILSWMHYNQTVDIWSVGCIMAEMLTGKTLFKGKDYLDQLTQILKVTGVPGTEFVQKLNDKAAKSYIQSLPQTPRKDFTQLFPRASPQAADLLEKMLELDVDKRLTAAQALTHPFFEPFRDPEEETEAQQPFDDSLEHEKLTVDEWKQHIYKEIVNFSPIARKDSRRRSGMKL
# [8] = target: panel of more than 300 wild-type and mutant kinases (313 kinase panel) (Homo sapiens, UniProt P08631)
# [9] = target: panel of more than 300 wild-type and mutant kinases (313 kinase panel) (Homo sapiens, UniProt Q9H422); settings: kinase HIPK3; compound at 1 μM
# [10] = target: T4, panel of more than 300 wild-type and mutant kinases (313 kinase panel) (Homo sapiens, UniProt O00141); settings: kinase SGK; 1 μM
# T4 sequence (O00141 1-431): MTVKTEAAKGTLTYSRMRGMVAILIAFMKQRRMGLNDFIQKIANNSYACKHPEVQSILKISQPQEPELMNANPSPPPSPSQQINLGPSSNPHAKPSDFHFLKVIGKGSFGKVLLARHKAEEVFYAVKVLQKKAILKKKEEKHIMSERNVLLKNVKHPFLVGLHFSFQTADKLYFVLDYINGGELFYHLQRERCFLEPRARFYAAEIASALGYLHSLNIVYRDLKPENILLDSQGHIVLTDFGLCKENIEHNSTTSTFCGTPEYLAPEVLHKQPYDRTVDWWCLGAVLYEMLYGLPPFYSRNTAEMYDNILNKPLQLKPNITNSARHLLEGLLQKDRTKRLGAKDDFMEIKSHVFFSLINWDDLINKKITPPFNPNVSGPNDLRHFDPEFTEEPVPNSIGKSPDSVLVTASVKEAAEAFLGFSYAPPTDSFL
# Chain of panel of more than 300 wild-type and mutant kinases (313 kinase panel) (Homo sapiens, UniProt P08631) (P08631 whole entry, change not shown): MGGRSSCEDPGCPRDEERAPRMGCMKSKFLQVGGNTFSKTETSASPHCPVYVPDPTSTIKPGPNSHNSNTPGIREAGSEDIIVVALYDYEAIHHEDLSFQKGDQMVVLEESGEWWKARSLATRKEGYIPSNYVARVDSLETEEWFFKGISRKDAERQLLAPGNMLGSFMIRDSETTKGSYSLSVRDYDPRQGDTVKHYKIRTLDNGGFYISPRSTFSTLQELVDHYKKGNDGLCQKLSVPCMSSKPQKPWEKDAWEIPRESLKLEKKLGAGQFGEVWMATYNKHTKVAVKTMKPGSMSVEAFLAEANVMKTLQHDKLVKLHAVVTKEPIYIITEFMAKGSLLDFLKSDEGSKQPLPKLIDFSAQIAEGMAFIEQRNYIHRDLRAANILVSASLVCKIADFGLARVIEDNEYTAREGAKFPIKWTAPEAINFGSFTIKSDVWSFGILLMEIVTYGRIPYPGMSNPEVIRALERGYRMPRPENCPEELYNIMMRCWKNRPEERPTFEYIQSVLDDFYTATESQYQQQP
# Chain of panel of more than 300 wild-type and mutant kinases (313 kinase panel) (Homo sapiens, UniProt Q15375) (Q15375 28-998, change not shown): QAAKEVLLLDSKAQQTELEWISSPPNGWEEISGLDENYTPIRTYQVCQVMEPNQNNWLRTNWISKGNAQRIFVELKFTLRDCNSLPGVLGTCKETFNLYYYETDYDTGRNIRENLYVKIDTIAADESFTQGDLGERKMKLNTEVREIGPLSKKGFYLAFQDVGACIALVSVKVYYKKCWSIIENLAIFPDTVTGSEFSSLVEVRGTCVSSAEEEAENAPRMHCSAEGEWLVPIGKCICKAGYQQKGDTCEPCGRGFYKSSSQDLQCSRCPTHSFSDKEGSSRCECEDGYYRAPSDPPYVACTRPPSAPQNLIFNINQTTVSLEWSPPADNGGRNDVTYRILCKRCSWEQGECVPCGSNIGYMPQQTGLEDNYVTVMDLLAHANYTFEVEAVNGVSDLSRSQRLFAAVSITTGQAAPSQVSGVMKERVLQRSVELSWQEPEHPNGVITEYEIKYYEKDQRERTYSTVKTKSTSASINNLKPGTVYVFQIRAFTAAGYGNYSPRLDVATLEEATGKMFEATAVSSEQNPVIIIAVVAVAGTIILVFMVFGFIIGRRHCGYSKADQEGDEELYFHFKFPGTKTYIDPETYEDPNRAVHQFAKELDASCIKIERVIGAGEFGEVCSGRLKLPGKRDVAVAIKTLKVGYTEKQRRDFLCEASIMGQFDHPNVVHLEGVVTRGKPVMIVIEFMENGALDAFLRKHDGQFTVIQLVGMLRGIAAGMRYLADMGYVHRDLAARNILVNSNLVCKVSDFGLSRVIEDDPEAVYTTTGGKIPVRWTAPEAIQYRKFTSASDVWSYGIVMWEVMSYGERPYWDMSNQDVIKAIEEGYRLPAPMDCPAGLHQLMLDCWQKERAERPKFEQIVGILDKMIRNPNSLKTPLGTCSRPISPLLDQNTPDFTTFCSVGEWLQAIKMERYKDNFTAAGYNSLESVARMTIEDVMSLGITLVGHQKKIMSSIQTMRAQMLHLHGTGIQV
SMILES,%-inhibition of TSSK1 [1] [%],%-inhibition of MRCKβ [2] [%],%-inhibition of EPHA7 [3] [%],"%-inhibition of MGC42105 ([4]; kinase MGC42105, 1 μM) [%]",%-inhibition of MSSK1 [5] [%],"%-inhibition of PGK ([6]; kinase PGK, 1 μM) [%]",%-inhibition of p38δ [7] [%],"%-inhibition of HCK ([8]; kinase HCK, compound at 1 μM) [%]",%-inhibition of HIPK3 [9] [%],%-inhibition of SGK [10] [%],%-inhibition of MGC42105 ([4]; 1 µM) [%],%-inhibition of PGK ([6]; 1 µM) [%],%-inhibition of HCK ([8]; 1 µM) [%]
CO[C@H]1C[C@@H]2CC[C@@H](C)[C@@](O)(O2)C(=O)C(=O)N2CCCC[C@H]2C(=O)O[C@H]([C@H](C)C[C@@H]2CC[C@@H](OCCO)[C@H](OC)C2)CC(=O)[C@H](C)/C=C(\C)[C@@H](O)[C@@H](OC)C(=O)[C@H](C)C[C@H](C)/C=C/C=C/C=C/1C [everolimus],-6,0.688,-4,-4,-7,-6.44,-9,-2.7,-8,-6.59,–,–,–
Cc1cn(-c2cc(NC(=O)c3ccc(C)c(Nc4nccc(-c5cccnc5)n4)c3)cc(C(F)(F)F)c2)cn1 [nilotinib],-2.32,-10,19,–,-17,–,-10,–,12,9,-48,-13,73
Cc1ccc(Nc2nccc(N(C)c3ccc4c(C)n(C)nc4c3)n2)cc1S(N)(=O)=O [pazopanib],-1.56,1.15,12,0.318,-2,-3,-0.586,67,3,-1.12,–,–,–
CNC(=O)c1cc(Oc2ccc(NC(=O)Nc3ccc(Cl)c(C(F)(F)F)c3)c(F)c2)ccn1 [regorafenib],-7,-17,84,-22,43,-7,2.22,59,88,-5.37,–,–,–
N#CC[C@H](C1CCCC1)n1cc(-c2ncnc3[nH]ccc23)cn1 [ruxolitinib],39,20,7.51,-13,6,14,0.0923,9,2,-2.44,–,–,–
CO[C@H]1C[C@@H]2CC[C@@H](C)[C@@](O)(O2)C(=O)C(=O)N2CCCC[C@H]2C(=O)O[C@H]([C@H](C)C[C@@H]2CC[C@@H](OC(=O)C(C)(CO)CO)[C@H](OC)C2)CC(=O)[C@H](C)/C=C(\C)[C@@H](O)[C@@H](OC)C(=O)[C@H](C)C[C@H](C)/C=C/C=C/C=C/1C [temsirolimus],-7,-4,-6,-11,-8,-5.57,-5.63,3.49,0.626,-3.17,–,–,–
CC(=O)Nc1cccc(-n2c(=O)n(C3CC3)c(=O)c3c(Nc4ccc(I)cc4F)n(C)c(=O)c(C)c32)c1 [trametinib],-5,-2.56,-5,1.39,-5,-1.31,-2.7,-2.84,0.0849,0.217,–,–,–
CCCS(=O)(=O)Nc1ccc(F)c(C(=O)c2c[nH]c3ncc(-c4ccc(Cl)cc4)cc23)c1F [vemurafenib],-4,-5,-0.639,-8,-6.65,-4.33,8,30,-6,-0.122,–,–,–
